Source: PMC8510480, “Searching Anti-Zika Virus Activity in 1H-1,2,3-Triazole Based Compounds” (Molecules, 2021)
Where two headings read alike, the source gives them in different places.

Test system: ZIKV
Experiment: Post-infection test with ZIKV in Vero cells
Type: cell-based, Zika virus
Conditions: for inhibition at 136.9 µM: CC20 (4b 136.90 µM; 6MMPr 60.50 µM); for inhibition at 136.9 µM / inhibition at 68.45 µM / inhibition at 34.23 µM / inhibition at 17.11 µM: read-out: % Viral Inhibition; for inhibition at 68.45 µM: CC20/2 (4b 68.45 µM; 6MMPr 30.25 µM); for inhibition at 34.23 µM: CC20/4 (4b 34.23 µM; 6MMPr 15.13 µM); for inhibition at 17.11 µM: CC20/8 (4b 17.11 µM; 6MMPr 7.6 µM)
Experimental: We then investigated the activity of compound 4b after ZIKV infection in cells. As already noted in the screening test, 4b reduced ZIKV growth to levels similar to 6MMPr, a positive control previously described by our group. As in the pre-treatment test, four different concentrations were used, with the maximum being CC20 (136.90, 68.45, 34.22 and 17.11 µM). […] It is worth highlighting the constant decrease in the viral titer, even in lower concentrations, while the positive control 6MMPr reduces it only in the highest concentrations.
Statistical analysis compared the concentrations of each compound at each collection time (3 d.p.i. and 5 d.p.i.) with a t-test.
Figure 6 Comparison of anti-ZIKV activity between 6MMPr and 4b after three- and five-days post-infection (d.p.i.). 6MMPr and compound 4b were submitted to a post-infection test when Vero cells was infected with ZIKV at MOI 0.1 for 2 h then treated with compounds. Concentrations used in the test corresponded to CC20 (4b = 136.90 µM; 6MMPr = 60.50 µM), CC20/2 (4b = 68.45 µM; 6MMPr = 30.25 µM), CC20/4 (4b = 34.22 µM; 6MMPr = 15.13 µM) and CC20/8 (4b = 17.11 µM; 6MMPr = 7.56 µM). The experiment was done in triplicates and values are the mean and the SD. Statistical analysis was made between compounds using t-test on GraphPad Prism program. * = significative; ns = not statistically significant for p < 0.05. (a) 3 d.p.i. from both compounds. (b) 5 d.p.i. from both compounds.
96-well plates with 1 × 10^4 cell/well were used in this assay and prepared 24 h previously. Seven serial dilutions of the virus were prepared in DMEM + 2% FBS culture medium. After removing the culture medium from the plate, 50 µL of each dilution was added to the wells in several repetitions. The plate was incubated at 37 °C and 5% atm CO2 for 1 h. After this interval, each well of the plate received an additional 100 µL of DMEM + 2% FBS culture medium. The plate was incubated again, in the same parameters, for 5 days. Some columns of the plate were selected for use as a cell control (culture medium only, no virus). The reading was performed in an inverted optical microscope AE2000, Motic (Motic, Kowloon Bay, Hong Kong) counting positives wells by the presence of cytopathic effect and the determination of the sample title was performed with the aid of the Microsoft Office Excel program (Microsoft® Office, Redmond, WA, USA).
48-well plates with 2.5 × 10^4 cells/well were prepared 24 h previously. A ZIKV solution at MOI 0.1 was inoculated into the wells and the cells incubated at 37 °C and 5% CO2 atmosphere. After 2 h, the culture medium was removed, and the wells were washed with 1X PBS. 2:1 dilution of 4b (136.90 µM, 68.45 µM, 34.22 µM and 17.11 µM) and 6MMPr (60.50 µM, 30.25 µM, 15.13 µM and 7.56 µM) were added in triplicate. The cells were again incubated for 72 h and 120 h. The supernatants from the wells were collected and titrated.

O=C1C(Br)=C(NCc2cn(CN3C(=O)c4ccccc4C3=O)nn2)C(=O)c2ccccc21 [Compound 4b]
inhibition at 136.9 µM (Zika virus, 72 h, 3 d.p.i.): 94.9%
inhibition at 68.45 µM (Zika virus, 72 h, 3 d.p.i.): 85.6%
inhibition at 34.23 µM (Zika virus, 72 h, 3 d.p.i.): 85.8%
inhibition at 17.11 µM (Zika virus, 72 h, 3 d.p.i., negative = increased virus titer compared to control): 88.8%
inhibition at 136.9 µM (Zika virus, 120 h, 5 d.p.i.): 97.5%
inhibition at 68.45 µM (Zika virus, 120 h, 5 d.p.i.): 93.7%
inhibition at 34.23 µM (Zika virus, 120 h, 5 d.p.i.): 90.8%
inhibition at 17.11 µM (Zika virus, 120 h, 5 d.p.i.): 96.8%
IC50 (Zika virus, Vero, read-out: IC50 (50% inhibition concentration, virus replication)): 146 µM
% Viral Inhibition (post-infection test, Table 4, concentration and time not stated): 91.1%
effect on growth of the virus (viral titer) (post-infection, four concentrations from CC20 to CC20/8, 3 and 5 d.p.i.): inhibits the growth of the virus at all concentrations used
SI (selectivity index) (ratio between the CC50 and IC50 values): 2.3
